Reference: the NIST ThermoML archive (doi:10.1021/acs.jced.5b00773)
± gives the expanded uncertainty stated by the source.

Details: Liquid, Closed cell (Static) method

Compound: CCC(C)O (stereo not drawn) [butan-2-ol]
- vapor or sublimation pressure (473.46 K): 1500 ± 10 kPa

Compound: CCOC(C)=O [ethyl acetate]
- vapor or sublimation pressure (462.75 K): 1500 ± 10 kPa

Compound: COC(C)=O [methyl ethanoate]
- vapor or sublimation pressure (436.08 K): 1500 ± 10 kPa
